Test system: Male NSA mice
Assay: In vivo determination of behavioral effects (motor activity / MK-801 hyperactivity), minimum effective dose
Details: p.o., lowest dose significantly different from vehicle control (distance traveled)
Description: Animals and Apparatus. Male NSA mice (Harlan; San Deigo, Calif.) were used as subjects. Mice weighed 20-30 g. Animals were housed 8/cage in the One Cage system (One Cage; Lab Products, Inc., Seaford, Del.) with bedding (⅛ inch Bed “O” Cob; Harlan Teklad, Madison, Wis.) in a room with controlled temperature 22±3° C. and a 12 hour light:dark cycle (lights on 6 am). Water and standard rodent chow (Harlan Teklad) were continuously available in the home cage. For testing, plastic locomotor activity cages (20×20×30 cm; AccuScan Instruments, Columbus, Ohio) were equipped with photocell beams for monitoring horizontal activity. Data were collected using Versamax computer software (AccuScan Instruments).
For determination of spontaneous activity, test compounds were administered alone (s.c. 10 min or p.o. 30 min before the session). For hyperactivity experiments, mice were injected with 0.3 mg/kg MK-801 i.p. 15 min presession (the peak dose for producing hyperactivity in an inverted-U dose-effect curve as determined in pilot experiments) in combination with vehicle or test compound. Motor activity data were collected during a 15 min session in a lit room. Mice had no prior exposure to the motor cages. Each dose or dose combination was tested in a separate group of mice (n=8).
Distance traveled (cm) was calculated and averaged across animals in a group. […]

SMILES: CC(C)COc1ccc(CC(=O)N(Cc2ccc(F)cc2)C2CCN(CCCN3C(=O)OC[C@@H]3C(C)C)CC2)cc1.O=C(O)C(=O)O [117NLS01, N-(4-Fluorobenzyl)-2-(4-isobutoxyphenyl)-N-{1-[3-(4-(S)-isopropyl-2-oxo-oxazolidin-3-yl)propyl]piperidin-4-yl}acetamide]
- MED in vivo po: 1 mg/kg

— patent publication US7538222B2, “N-substituted piperidine derivatives as serotonin receptor agents” (ACADIA Pharmaceuticals, Inc., priority 2002, dated 2009)
